Assay results as given in ChEMBL document CHEMBL4229477, “Reevaluating the Substrate Specificity of the L-Type Amino Acid Transporter (LAT1)” (J Med Chem, 2018).
pIC50: −log10 of the molar value.

Molecular target: Large neutral amino acids transporter small subunit 1 (Homo sapiens, UniProt Q01650)
Experiment: Cis-inhibition of human LAT1 expressed in TREx HEK293 cells at 200 uM assessed as inhibition of [3H]-gabapentin uptake preincubated for 3 mins at 37 degC followed by washing with choline buffer and measured after 3 hrs by scintillation counting analysis relative to BCH
Assay type: cell-based

Chain of Large neutral amino acids transporter small subunit 1 (Q01650 whole entry): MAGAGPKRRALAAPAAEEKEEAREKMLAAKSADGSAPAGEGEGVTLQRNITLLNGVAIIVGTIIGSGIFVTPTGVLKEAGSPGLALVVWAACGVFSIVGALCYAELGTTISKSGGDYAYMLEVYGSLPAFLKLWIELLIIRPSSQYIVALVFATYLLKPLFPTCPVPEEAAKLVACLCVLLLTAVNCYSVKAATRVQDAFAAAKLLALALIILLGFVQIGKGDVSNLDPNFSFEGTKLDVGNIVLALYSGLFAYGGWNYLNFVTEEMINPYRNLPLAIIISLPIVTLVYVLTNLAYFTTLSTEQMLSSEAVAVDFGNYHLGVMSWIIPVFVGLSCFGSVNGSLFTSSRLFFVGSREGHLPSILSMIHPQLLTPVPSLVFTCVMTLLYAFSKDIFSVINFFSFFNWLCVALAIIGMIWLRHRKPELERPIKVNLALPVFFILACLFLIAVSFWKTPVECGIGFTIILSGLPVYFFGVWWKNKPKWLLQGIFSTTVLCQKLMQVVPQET

| pIC50 | Structure (SMILES) |
| --- | --- |
| 3.59 | N[C@H](CC1CCCCC1)C(=O)O |
| 3.33 | NCc1cccc(C[C@H](N)C(=O)O)c1 |
| 3.80 | N[C@@H](Cc1ccccn1)C(=O)O |
| < 2.52 | CC[C@H](C)[C@@H](N)C(=O)O |
| 3.77 | N[C@@H](Cc1cn(Cc2ccccc2)cn1)C(=O)O |
| 4.07 | CC(C)C[C@H](N)C(=O)O [LEUCINE] |
| 3.77 | CSCC[C@H](N)C(=O)O [METHIONINE] |
| 3.72 | Cn1cnc(C[C@H](N)C(=O)O)c1 |
| 3.92 | CSCC[C@@H](N)C(=O)O |
| < 1.30 | CC(C)[C@@H](N)C(=O)O |
| 4.16 | N[C@@H](Cc1ccccc1)C(=O)O [PHENYLALANINE] |
| 4.16 | N[C@@H](Cc1cccnc1)C(=O)O |
| 3.96 | CC(=O)Nc1cccc(C[C@H](N)C(=O)O)c1 |
| 3.66 | CC(C)C[C@@H](N)C(=O)O [D-LEUCINE] |
| 4.70 | N[C@@H](Cc1c[nH]cn1)C(=O)O [HISTIDINE] |
| 3.62 | CSCC[C@](N)(Cc1ccccc1)C(=O)O |
| 4.44 | COC(=O)c1cccc(C[C@H](N)C(=O)O)c1 |
| 4.12 | COC(=O)Cc1cccc(C[C@H](N)C(=O)O)c1 |
| 4.54 | N[C@@H](Cc1cccc(C(=O)OCCO)c1)C(=O)O |

| pIC50 | Structure (SMILES) |
| --- | --- |
| 3.59 | COC(=O)c1ccc(C[C@H](N)C(=O)O)cc1 |
| 3.89 | N[C@@H](Cc1cccc(C(=O)O)c1)C(=O)O |
| 4.02 | COC(=O)c1cc(C)cc(C[C@H](N)C(=O)O)c1 |
| 3.82 | COC(=O)c1cccc(C[C@@H](N)C(=O)O)c1 |
| 3.89 | C[C@](N)(Cc1ccccc1)C(=O)O |
| 4.17 | CC(C)[C@H](N)C(=O)O [VALINE] |
| 3.17 | Cc1cc(C[C@H](N)C(=O)O)cc(C(=O)O)c1 |
| 3.85 | CC[C@H](C)[C@H](N)C(=O)O [ISOLEUCINE] |
| 4.77 | CC(C)(C)OC(=O)c1cccc(C[C@H](N)C(=O)O)c1 |
| 3.89 | N[C@@H](Cc1cccc(O)c1)C(=O)O |
| 3.70 | N[C@@H](CC1CCCCC1)C(=O)O |
| 4.04 | CC(=O)c1cccc(C[C@H](N)C(=O)O)c1 |
| 4.00 | N[C@@H](Cc1ccncc1)C(=O)O |
| 4.08 | N[C@@H](Cc1cccc(CO)c1)C(=O)O |
| 4.02 | CNC(=O)c1cccc(C[C@H](N)C(=O)O)c1 |
| 4.00 | Nc1cccc(C[C@H](N)C(=O)O)c1 |
| 3.09 | C[C@@](N)(Cc1ccccc1)C(=O)O |
| 3.34 | N[C@H](Cc1c[nH]cn1)C(=O)O [D-HISTIDINE] |
| 4.34 | N[C@H](Cc1ccccc1)C(=O)O [D-PHENYLALANINE] |

| Structure (SMILES) | pIC50 |
| --- | --- |
| N[C@@H](Cc1c[nH]c2ccccc12)C(=O)O [TRYPTOPHAN] | 3.80 |
| N[C@H](Cc1c[nH]c2ccccc12)C(=O)O [D-TRYPTOPHAN] | 3.42 |
| N[C@H](Cc1ccc(O)cc1)C(=O)O | 3.42 |
| N[C@@H](Cc1ccc(O)cc1)C(=O)O [TYROSINE] | 4.17 |
